The source of these data is patent publication US20180193350A1, “TREATMENT OF NUT MIDLINE CARCINOMA” (Tensha Therapeutics, Inc., priority 2015, published 2018).

One assay concerns CD11b on CD14+ monocytes. Description: CD11b expression levels on CD14+ monocytes in patients treated with TEN-010 (flow cytometry, MESF). It is filed as in vivo, human. The text has this:
Patients aged 18 years or older with histologically confirmed advanced solid tumors with progressive disease requiring therapy were enrolled in the study. In particular, patients with histologically confirmed advanced solid malignancy with progressive disease, NMC, or advanced aggressive diffuse large B cell lymphoma (DLBCL) were enrolled in the study. Patients with hemotologic malignancies were not enrolled in the study. TEN-010 was formulated as a sterile, preserved isotonic solution for subcutaneous (SC) administration. A dose of 0.45 mg/kg was administered on Days 1 through 21 (“ON segment”) of each cycle without interruption, followed by a 7-day dose-free interval (“OFF segment”) in a 28-day treatment cycle. Injections were rotated amongst several sites including bilateral upper arms and thighs and mid and lower abdomen and buttocks. Whole blood specimens were collected at specified time points (e.g., see FIG. 1) in sodium heparin vacutainers. Briefly, two 12×75 mm test tubes per donor were labeled with specimen ID and appropriate cocktail name (see Table 2 below). 100 μl of sodium heparin anticoagulated whole blood was pipetted into the test tubes. The appropriate titrated volume of antibody cocktails was pipetted into the correspondingly labeled tubes. The appropriate titrated amount of CD14 PerCP, was added to all tubes to identify CD14 positive monocytes. The tubes were vortexed and were allowed to incubate for 30 minutes at room temperature in the dark. The red blood cells were lysed by adding 4 ml of an ammonium chloride-based whole blood lysing reagent to each tube. The tubes were capped and inverted to mix well prior to incubating in the dark at room temperature for 5 minutes. After the incubation, the tubes were centrifuged at 400 RCF for 5 minutes, the supernatant decanted and the tubes rack-raked to disperse cell pellet. The cells were washed with 2 ml of PBS with 1% BSA and centrifuged. To detect biotin conjugated CD45 RO antibody, the appropriate titrated amount of SA-BV605 (streptavidin (SA) conjugated to brilliant violet (BV) 605) was added to each tube and tubes were vortexed. After a 20 minute incubation in the dark at room temperature, the cells were washed with 2 ml of PBS with 1% BSA and centrifuged. The supernatant was decanted and the cells were rack-raked to disperse the cell pellet. Each tube received 500 μl of 1% paraformaldehyde and stored at 2-8 C until acquisition on the day of preparation. The tubes were acquired on a Becton Dickinson (BD) FACSCanto™ II flow cytometer with appropriate instrument settings, acquiring approximately 250,000 total events per tube. All analyses for flow cytometry were performed on WinList 7.0 (Verity Software House, Topsham, Me.) with a direct data exchange link to Microsoft® Excel 2003 or equivalent. For FIG. 1, baseline value (pre-dose at cycle 1, day 1, i.e., C1D1) was set at an arbitrary MESF value (e.g., 100) for each patient; all subsequent values obtained from the study were normalized to the baseline value. For FIG. 2, unnormalized MESF values are shown.

Assay [1] has as its system lactate dehydrogenase (LDH). In words: LDH levels in patients treated with TEN-010. It is filed as in vivo, human. Particulars: non-NMC patient 002-021 (FIG. 2B), despite significant rise in CD11b levels. The text has this: Patients aged 18 years or older with histologically confirmed advanced solid tumors with progressive disease requiring therapy were enrolled in the study. In particular, patients with histologically confirmed advanced solid malignancy with progressive disease, NMC, or advanced aggressive diffuse large B cell lymphoma (DLBCL) were enrolled in the study. Patients with hemotologic malignancies were not enrolled in the study.
TEN-010 was formulated as a sterile, preserved isotonic solution for subcutaneous (SC) administration. A dose of 0.45 mg/kg was administered on Days 1 through 21 (“ON segment”) of each cycle without interruption, followed by a 7-day dose-free interval (“OFF segment”) in a 28-day treatment cycle. Injections were rotated amongst several sites including bilateral upper arms and thighs and mid and lower abdomen and buttocks.
LDH levels were measured using standard protocols, using a chemistry analyzer, e.g., Beckman Coulter. See, e.g., Lactate OSR6193 procedure published March 2012 (webcache.googleuserconent.com/search?q=cache:iyYi7vCetH4J:https://www.beckmancoulter.com/wsrportal/techdocs%3Fdocname%3D/cis/BAOSR6x93%2525%2525/EN_LACTATE_BAOSR6x93_US.doc+&cd=2&hl=en&ct=clnk&gl=us), incorporated by reference in its entirety.

Assay [2] deals with bromodomains of the BET family. Particulars: Bres et al. 2008; cited from earlier work.

Each structure is given as a SMILES string.

Turning to `Cc1sc2c(c1C)C(c1ccc(Cl)cc1)=N[C@@H](CC(=O)NCCCN1CCN(C)CC1)c1nnc(C)n1-2` [TEN-010], the “CD11b levels following the off-drug segment (C2D1)” value in the assay with CD11b on CD14+ monocytes (NMC patient 004-001) is “dramatically increased”. In the assay on CD11b on CD14+ monocytes (NMC patient 004-001, suggested by CD11b increase, patient died shortly thereafter), the “effectiveness by C2D1” value is reported as “not effective”. In the assay with CD11b on CD14+ monocytes (all 6 patients, 0.45 mg/kg SC Days 1-21 of 28-day cycle, by C1D15 vs pre-dose C1D1), the “decrease of CD11b levels relative to baseline value” is given as “at least 50%”. The “CD11b levels at start of second cycle (C2D1)” value in the assay on CD11b on CD14+ monocytes (all patients except NMC patient 004-001, after 21 days on-drug and 7 days off-drug) is listed as “held steady”. Further, the CD11b levels result with CD11b on CD14+ monocytes (non-NMC patient 002-021 (FIG. 2B)) is “significant rise”. Also, the LDH levels entry in assay [1] is recorded as “remained constant”.

For the molecule `Cc1sc2c(c1C)C(c1ccc(Cl)cc1)=N[C@@H](CC(=O)OC(C)(C)C)c1nnc(C)n1-2` [JQ1], the “binding to bromodomains of the BET family” value in assay [2] is “specifically binds”.
